Laboratory results from paper PMC8036666, “Biological and Physico-Chemical Characteristics of Arginine-Rich Peptide Gemini Surfactants with Lysine and Cystine Spacers” (International Journal of Molecular Sciences, 2021).
In brackets after ≈: the same amount, converted by molar mass. Where two headings read alike, the source gives them in different places. Where a SMILES comes first, the peptide text is derived from it. Bridges are numbered along the chain shown (N, C = ends). Roman numbers before positions name the chains, in order. Side-chain parts run from the residue outwards. The star is where a group is joined. Myristoyl = CCCCCCCCCCCCCC(=O)*; Decanoyl = CCCCCCCCCC(=O)*; Octanoyl = CCCCCCCC(=O)*

Assays:
[1] = Lipopeptide hydrophobicity by RP-HPLC (adjusted retention time); type: physicochemical; conditions: for Adjusted Retention Time: RP-HPLC, 20–65% acetonitrile over 30 min, indicator of hydrophobicity
Procedure, shortened: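 Analytical RP-HPLC on an embedded-polar-group RP-18 column, 20–65% acetonitrile gradient in water (both 0.1% TFA) over 30 min at 0.5 mL/min, 25.0 °C. Peptides at 1 mg/mL in 0.1% TFA water, UV detection at 214 nm. Triplicate runs.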

[2] = tested on: Pseudomonas aeruginosa ATCC 9027
[3] = tested on: Enterococcus faecium ATCC 700221
[4] = tested on: Klebsiella pneumoniae ATCC 700603; conditions: ATCC 700603, 24 h
[5] = tested on: Klebsiella aerogenes ATCC 13048; conditions: ATCC 13048, 24 h
[6] = tested on: Acinetobacter baumannii ATCC BAA 1605; conditions: ATCC BAA 1605, 24 h
[7] = tested on: Staphylococcus aureus ATCC 25923
[8] = tested on: Staphylococcus aureus ATCC 33591; type: cell-based; conditions: ATCC 33591, 24 h
Procedure, shortened: (§1)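 MBEC, resazurin read-out (A570/A600): lowest concentration giving ≤10 ± 0.5% dye reduction relative to positive (100%) and negative (0%) controls. Preformed 24 h biofilms, MHB, inoculum 5.0 × 10^5 CFU/mL; compounds 1–512 μg/mL, 24 h, 37 °C. Triplicate.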

[9] = tested on: Pseudomonas aeruginosa ATCC 9027; type: cell-based; conditions: ATCC 9027, 24 h
Procedure, shortened: as §1

[10] = tested on: Enterococcus faecium ATCC 700221; type: cell-based; conditions: ATCC 700221, 24 h
Procedure, shortened: as §1

[11] = tested on: Candida glabrata ATCC 15126; type: cell-based; conditions: ATCC 15126, 24 h
[12] = tested on: Klebsiella pneumoniae ATCC 700603; type: cell-based; conditions: ATCC 700603, 24 h
Procedure, shortened: as §1

[13] = tested on: Klebsiella aerogenes ATCC 13048; type: cell-based; conditions: ATCC 13048, 24 h
Procedure, shortened: as §1

[14] = tested on: Acinetobacter baumannii ATCC BAA 1605; type: cell-based; conditions: ATCC BAA 1605, 24 h
Procedure, shortened: as §1

[15] = tested on: Staphylococcus aureus ATCC 25923; type: cell-based; conditions: ATCC 25923, 24 h
Procedure, shortened: as §1

[16] = tested on: Candida albicans ATCC 10231; type: cell-based; conditions: ATCC 10231, 24 h

Row | SMILES | Adjusted Retention Time [1] | MIC Pseudomonas aeruginosa ATCC 9027 ([2]; planktonic culture) | MIC Enterococcus faecium ATCC 700221 ([3]; planktonic culture) | MIC Klebsiella pneumoniae ATCC 700603 [4] | MIC Klebsiella aerogenes ATCC 13048 [5] | MIC Acinetobacter baumannii ATCC BAA 1605 [6] | MIC Staphylococcus aureus ATCC 25923 ([7]; planktonic culture) | MBEC Staphylococcus aureus ATCC 33591 [8] | MBEC Pseudomonas aeruginosa ATCC 9027 [9] | MBEC Enterococcus faecium ATCC 700221 [10] | MBEC Candida glabrata ATCC 15126 [11] | MBEC Klebsiella pneumoniae ATCC 700603 [12] | MBEC Klebsiella aerogenes ATCC 13048 [13] | MBEC Acinetobacter baumannii ATCC BAA 1605 [14] | MBEC Staphylococcus aureus ATCC 25923 [15] | MBEC Candida albicans ATCC 10231 [16] | MIC Pseudomonas aeruginosa ATCC 9027 ([2]; ATCC 9027, 24 h) | MIC Enterococcus faecium ATCC 700221 ([3]; ATCC 700221, 24 h) | MIC Staphylococcus aureus ATCC 25923 ([7]; ATCC 25923, 24 h) | Difference in retention time calculated as tR’C—tR’B ([1]; between corresponding surfactants of series C and B)
1 | CCCCCCCCCC(=O)N[C@@H](CCCNC(=N)N)C(=O)N[C@@H](CCCNC(=N)N)C(N)=O [Compound A2, C10-RR-NH2] (Decanoyl-Arg-Arg-NH2) | 7.74 min | >256 (−/−) µg/mL | 256 (−/−) µg/mL | >256 (−/−) µg/mL | >256 (−/−) µg/mL | >256 (−/−) µg/mL | 256 (−/−) µg/mL | 512 µg/mL | >512 µg/mL | 512 µg/mL | >512 µg/mL | >512 µg/mL | >512 µg/mL | >512 µg/mL | 512 µg/mL | 512 µg/mL |  |  |  | 
2 | CCCCCCCCCCCCCC(=O)N[C@@H](CCCNC(=N)N)C(=O)N[C@@H](CCCNC(=N)N)C(=O)NCCCC[C@H](NC(=O)[C@H](CCCNC(=N)N)NC(=O)[C@H](CCCNC(=N)N)NC(=O)CCCCCCCCCCCCC)C(N)=O [Compound B4] (Myristoyl-Arg-Arg-Lys([Arg-Arg-Myristoyl])-NH2) | 25.33 min |  |  | 32 µg/mL (≈ 26.9 µM) | 32 µg/mL (≈ 26.9 µM) | 64 µg/mL (≈ 53.8 µM) |  | 128 µg/mL | >512 µg/mL | 64 µg/mL | 64 µg/mL | 512 µg/mL | 256 µg/mL | 512 µg/mL | 256 µg/mL | 64 µg/mL | 32 µg/mL (≈ 26.9 µM) | 8 µg/mL (≈ 6.72 µM) | 64 µg/mL (≈ 53.8 µM) | 
3 | CCCCCCCC(=O)N[C@@H](CCCNC(=N)N)C(=O)N[C@@H](CCCNC(=N)N)C(=O)N[C@@H](CSSC[C@H](NC(=O)[C@H](CCCNC(=N)N)NC(=O)[C@H](CCCNC(=N)N)NC(=O)CCCCCCC)C(N)=O)C(N)=O [Compound C1] (I: Octanoyl-Arg-Arg-Cys-NH2 / II: Octanoyl-Arg-Arg-Cys-NH2; disulfide I:3-II:3) | 8.26 min |  |  | >256 (−/−) µg/mL | >256 (−/−) µg/mL | 256 (−/−) µg/mL |  | 32 µg/mL | 512 µg/mL | 64 µg/mL | >512 µg/mL | >512 µg/mL | >512 µg/mL | 512 µg/mL | 64 µg/mL | 256 µg/mL | 64 µg/mL (≈ 57.4 µM) | 32 µg/mL (≈ 28.7 µM) | 8 µg/mL (≈ 7.17 µM) | 0.15 min
